# Measurements reported in ChEMBL document CHEMBL3885861, “Open TG-GATES”.
# Organism: Rattus norvegicus
# Assay: Open TG-GATES - Regimen: Single
# Format: toxicity, organism-based, Sprague-Dawley
# Set-up: regimen Single, gender Male, age 6 weeks
# Conditions: in vivo, po, route gavage; for gamma-GTP / ALP / ALT / AST / BUN / CRE / Ca / Cl / DBIL / GLC / IP / K / LDH / Na / PL / RALB / TBIL / TG / TP: tissue Plasma; for APTT / Bas / Eos / Fbg / Hb / Ht / Lym / MCH / MCV / Mono / Neu / PT / Plat / RBC / Ret / WBC: tissue Blood; for KIDNEY_L / KIDNEY_R / KIDNEY_TOTAL: tissue Kidney; for LIVER: tissue Liver
# [1] = 100 mg/kg, 3 h, dose level Middle
# [2] = 100 mg/kg, 6 h, dose level Middle
# [3] = 100 mg/kg, 9 h, dose level Middle
# [4] = 100 mg/kg, 24 h, dose level Middle
smiles,measurement,setting,value
NC(=O)N1c2ccccc2C=Cc2ccccc21 [CARBAMAZEPINE],gamma-GTP,"30 mg/kg, 24 h, dose level Low",0.8 IU/L
same,TERMINAL_BW,[1],216.3 g
same,APTT,[1],19.3 s
same,Bas,[1],0%
same,Eos,[1],1.2%
same,Fbg,[1],209.4 mg/dL
same,Hb,[1],13.2 g/dL
same,Ht,[1],38.8%
same,Lym,[1],77.4%
same,MCH,[1],21.3 pg
same,MCV,[1],62.7 fL
same,Mono,[1],2.8%
same,Neu,[1],17.2%
same,PT,[1],12.4 s
same,Plat,[1],121.8 x10_4/uL
same,RBC,[1],619 x10_4/ul
same,Ret,[1],7.2%
same,WBC,[1],96 x10_2/uL
same,KIDNEY_L,[1],0.9 g
same,KIDNEY_R,[1],0.9 g
same,KIDNEY_TOTAL,[1],1.9 g
same,LIVER,[1],9.8 g
same,ALP,[1],792.4 IU/L
same,ALT,[1],35.8 IU/L
same,AST,[1],63.8 IU/L
same,BUN,[1],9.2 mg/dL
same,CRE,[1],0.4 mg/dL
same,Ca,[1],10.4 mg/dL
same,Cl,[1],102 meq/L
same,DBIL,[1],0.076 mg/dL
same,GLC,[1],190 mg/dL
same,IP,[1],9.9 mg/dL
same,K,[1],3.8 meq/L
same,LDH,[1],202 IU/L
same,Na,[1],140.6 meq/L
same,PL,[1],152.4 mg/dL
same,RALB,[1],3.3 g/dL
same,TBIL,[1],0.1 mg/dL
same,TG,[1],62 mg/dL
same,TP,[1],5.5 g/dL
same,gamma-GTP,[1],1 IU/L
same,TERMINAL_BW,[2],210.4 g
same,APTT,[2],20.3 s
same,Bas,[2],0%
same,Eos,[2],1%
same,Fbg,[2],210 mg/dL
same,Hb,[2],13.2 g/dL
same,Ht,[2],38.7%
same,Lym,[2],80.4%
same,MCH,[2],20.8 pg
same,MCV,[2],61.1 fL
same,Mono,[2],2.6%
same,Neu,[2],14.8%
same,PT,[2],12.8 s
same,Plat,[2],121.9 x10_4/uL
same,RBC,[2],633.2 x10_4/ul
same,Ret,[2],6.5%
same,WBC,[2],95.7 x10_2/uL
same,KIDNEY_L,[2],0.9 g
same,KIDNEY_R,[2],0.9 g
same,KIDNEY_TOTAL,[2],1.8 g
same,LIVER,[2],9.1 g
same,ALP,[2],803.4 IU/L
same,ALT,[2],30.8 IU/L
same,AST,[2],60.4 IU/L
same,BUN,[2],9.4 mg/dL
same,CRE,[2],0.4 mg/dL
same,Ca,[2],10.6 mg/dL
same,Cl,[2],102.4 meq/L
same,DBIL,[2],0.084 mg/dL
same,GLC,[2],190.6 mg/dL
same,IP,[2],9.4 mg/dL
same,K,[2],3.8 meq/L
same,LDH,[2],175.2 IU/L
same,Na,[2],140.8 meq/L
same,PL,[2],142 mg/dL
same,RALB,[2],3.4 g/dL
same,TBIL,[2],0.1 mg/dL
same,TG,[2],58.4 mg/dL
same,TP,[2],5.6 g/dL
same,gamma-GTP,[2],0.6 IU/L
same,TERMINAL_BW,[3],211 g
same,APTT,[3],18.6 s
same,Bas,[3],0%
same,Eos,[3],1%
same,Fbg,[3],204.6 mg/dL
same,Hb,[3],13.3 g/dL
same,Ht,[3],38.7%
same,Lym,[3],81.4%
same,MCH,[3],21.3 pg
same,MCV,[3],61.9 fL
same,Mono,[3],2.4%
same,Neu,[3],14.8%
same,PT,[3],13.2 s
same,Plat,[3],120.7 x10_4/uL
same,RBC,[3],625.2 x10_4/ul
same,Ret,[3],6.4%
same,WBC,[3],91.7 x10_2/uL
same,KIDNEY_L,[3],1 g
same,KIDNEY_R,[3],1 g
same,KIDNEY_TOTAL,[3],2 g
same,LIVER,[3],8.6 g
same,ALP,[3],828.4 IU/L
same,ALT,[3],25.2 IU/L
same,AST,[3],57.6 IU/L
same,BUN,[3],9.6 mg/dL
same,CRE,[3],0.3 mg/dL
same,Ca,[3],10.3 mg/dL
same,Cl,[3],101.6 meq/L
same,DBIL,[3],0.064 mg/dL
same,GLC,[3],197 mg/dL
same,IP,[3],10.1 mg/dL
same,K,[3],3.7 meq/L
same,LDH,[3],176.2 IU/L
same,Na,[3],140.2 meq/L
same,PL,[3],133.2 mg/dL
same,RALB,[3],3.4 g/dL
same,TBIL,[3],0.1 mg/dL
same,TG,[3],45.6 mg/dL
same,TP,[3],5.4 g/dL
same,gamma-GTP,[3],0.8 IU/L
same,TERMINAL_BW,[4],226.1 g
same,APTT,[4],20.2 s
same,Bas,[4],0%
same,Eos,[4],0.8%
same,Fbg,[4],211.6 mg/dL
same,Hb,[4],13.3 g/dL
same,Ht,[4],39.4%
same,Lym,[4],80%
same,MCH,[4],21.1 pg
same,MCV,[4],62.7 fL
same,Mono,[4],2.8%
same,Neu,[4],15.6%
same,PT,[4],12.2 s
same,Plat,[4],123.8 x10_4/uL
same,RBC,[4],629 x10_4/ul
same,Ret,[4],5.9%
same,WBC,[4],88.7 x10_2/uL
same,KIDNEY_L,[4],1 g
same,KIDNEY_R,[4],1.1 g
same,KIDNEY_TOTAL,[4],2.1 g
same,LIVER,[4],11.4 g
same,ALP,[4],820.6 IU/L
same,ALT,[4],33.8 IU/L
same,AST,[4],66.4 IU/L
same,BUN,[4],18.4 mg/dL
same,CRE,[4],0.4 mg/dL
same,Ca,[4],10.6 mg/dL
same,Cl,[4],103.2 meq/L
same,DBIL,[4],0.1 mg/dL
same,GLC,[4],199 mg/dL
same,IP,[4],7.4 mg/dL
same,K,[4],4.3 meq/L
same,LDH,[4],215 IU/L
same,Na,[4],140.2 meq/L
same,PL,[4],147 mg/dL
same,RALB,[4],3.3 g/dL
same,TBIL,[4],0.2 mg/dL
same,TP,[4],5.5 g/dL
same,gamma-GTP,[4],1 IU/L
